What all share (assay): In vitro antibacterial activity (MIC)
Type in all cases: cell-based

Test [1] concerns Enterobacter cloacae P-2540. The note with it: Enterobacter cloacae, P2540, read-out: minimum inhibitory concentration (MIC). The text has this: (§1) In vitro antibacterial activity against 20 strains of bacteria
(§2) The numerals in the table show minimum inhibitory concentrations (MIC)

Test [2] concerns Escherichia coli NIHJ JC-2. The note with it: Escherichia coli, NIHJJC2, read-out: minimum inhibitory concentration (MIC).
From the text: as §1, §2

The test system of a further test is Escherichia coli P-140a.
From the text: as §1, §2

Test [3] has as its system Klebsiella pneumoniae No. 13. The note with it: Klebsiella pneumoniae, NO.13, read-out: minimum inhibitory concentration (MIC).
From the text: as §1, §2

In another test the test system is Proteus morganii Kono. The note with it: Morganella morganii, read-out: minimum inhibitory concentration (MIC).
From the text: as §1, §2

The test system of another test is Proteus rettgeri P-2503. The conditions noted are these: Providencia rettgeri, P2503; Proteus rettgeri P-2503; read-out: minimum inhibitory concentration (MIC).
From the text: as §1, §2

The subject of test [4] is Pseudomonas aeruginosa Tsuchijima. The note with it: Pseudomonas aeruginosa Tsuchijima; read-out: minimum inhibitory concentration (MIC).
From the text: as §1, §2

Test [5] concerns Salmonella enteritidis No. 1891. The conditions noted are these: Salmonella enterica; Salmonella enteritidis No. 1891; read-out: minimum inhibitory concentration (MIC).
From the text: as §1, §2

The test system of test [6] is Salmonella typhimurium S-9. The conditions noted are these: Salmonella enterica; Salmonella typhimurium S-9; read-out: minimum inhibitory concentration (MIC).
From the text: as §1, §2

The test system of test [7] is Serratia mercescens IFO 3736. The note with it: IFO3736; Serratia mercescens IFO 3736; read-out: minimum inhibitory concentration (MIC).
From the text: as §1, §2

The test system of the next test is Shigella flexneri 2a. The note with it: read-out: minimum inhibitory concentration (MIC).
From the text: as §1, §2

Test [8] concerns Streptococcus faecalis P-2473. The note with it: Enterococcus faecalis, P2473, read-out: minimum inhibitory concentration (MIC).
From the text: as §1, §2

This is an account of results in patent US4103011A, “Novel penicillin compounds and process for preparation thereof” (priority 1976, dated 1978).

Counter-ions that a name gives are not always drawn.

As to `CC1(C)S[C@@H]2[C@H](NC(=O)[C@H](NC(=O)c3c[nH]c4nc(N5CCN(C=O)CC5)ncc4c3=O)c3ccc(O)cc3)C(=O)N2[C@H]1C(=O)O` [Compound 1, D-α-[5,8-Dihydro-2-(4-formyl-1-piperazinyl)-5-oxopyrido[2,3-d]pyrimidine-6-carboxamido]-p-hydroxybenzyl-penicillin sodium salt], the MIC in [1] turned out to be 6.25 µg/mL; in [2], 3.13 µg/mL; in [3], 12.5 µg/mL; with Proteus morganii Kono it was 6.25 µg/mL; in the test with Proteus rettgeri P-2503, 25 µg/mL; in test [4] it was 0.78 µg/mL. Also, the MIC came out at 0.78 µg/mL in [5]; 0.78 µg/mL in [6]; 6.25 µg/mL in test [7]; 3.13 µg/mL in the test on Shigella flexneri 2a; 3.13 µg/mL in test [8]. The “minimum inhibitory concentration (MIC)” value in the test with Escherichia coli P-140a worked out at 12.5 µg/mL.
